According to patent US12370235B2, “Synthetic, non-natural antimicrobial peptides inspired by Staphylococcus auricularis delta toxin” (University of Saskatchewan, priority 2021, dated 2025):
Ends that are not written are not given here.

Legend:
M. luteus ATCC 4698 = test: MIC, broth dilution; assay type: cell-based, Micrococcus luteus; settings: for MIC M. luteus: M. luteus ATCC 4698; for MIC (μg/mL) M. luteus: Table 4, liquid broth
Experimental: (§1) MIC determination. MICs were measured using peptides with 95% purity. For bacterial studies, cation-adjusted Mueller Hinton (MH) broth was used as the growth medium whereas Yeast Peptone Dextrose (YPD; 10 g/L yeast extract, 20 g/L peptone, 20 g/L dextrose) was used for Candida spp. and other yeast. Microorganisms were diluted to an optical density of […] in MH or YPD broth and a 180 μl volume was mixed with 20 μl of peptide arrayed as a 2-fold dilution series in a flat-bottom 96-well microtitre plate. A control was performed using 20 μl of sterile water. Plates were incubated as standing cultures overnight at 37° C.
(§2) Determination of minimum inhibitory concentrations. The MICs were measured for bioactive peptides identified from the initial screen. For bacterial studies, cation-adjusted Mueller Hinton (MH) broth was used as the growth medium whereas YPD was used for C. albicans. Bacterial cultures were diluted to a OD value of 6×10^−4 in MH broth and a 180 μl volume was mixed with 20 μl of peptide arrayed as 2-fold dilution series in a 96-well plate. For the positive control, 20 μl of sterile water was used. Plates were incubated as standing cultures overnight at 37° C. The lowest peptide concentration that resulted no observed microbial growth after an overnight treatment was defined as the MIC.

S. aureus ATCC 29213 = test: MIC, broth dilution; assay type: cell-based, Staphylococcus aureus; settings: for MIC S. aureus: S. aureus ATCC 29213; for MIC (μg/mL) S. aureus: liquid broth
Experimental: as §1, §2

[1] = tested on: Mannheimia haemolytica ATCC 33393; test: MIC, broth dilution; assay type: cell-based; settings: for MIC M. haemolytica: M. haemolytica ATCC 33393; for MIC (μg/mL) M. haemolytica: Table 10, liquid broth
Experimental: as §1, §2
The ability of STIP3 variants to inhibit the growth of Mannheimia haemolytica ATCC 33393 was evaluated. This included an alanine scan of STIP3-1 (FIG. 8 & Table 10) as well as 30 rationally-designed STIPs that were evaluated in the preceding Examples against other pathogens (Table 11). Substitutions at a greater number of sites were tolerated in the context of antimicrobial activity. Moreover, the inclusion of basic natural and unnatural amino acids (e.g. lysine, ornithine, and arginine) at positions 3, 4 and 11 (i.e. X1, X2, and X4 of SEQ ID NO: 32) to afford a more uniformly cationic peptide increased activity against M. haemolytica.

C. albicans MYA-2876 = test: MIC, YPD broth; assay type: cell-based, Candida albicans; settings: Candida albicans MYA-2876
Experimental: as §1, §2

Sequence | MIC M. luteus (M. luteus ATCC 4698) [µg/mL] | MIC S. aureus (S. aureus ATCC 29213) | MIC M. haemolytica [1] [µg/mL] | MIC C. albicans (C. albicans MYA-2876) [µg/mL] | MIC (μg/mL) M. luteus (M. luteus ATCC 4698) [µg/mL] | MIC (μg/mL) S. aureus (S. aureus ATCC 29213; Table 4) | MIC (μg/mL) S. aureus (S. aureus ATCC 29213; Table 10) | MIC (μg/mL) M. haemolytica [1]
TVTKFVKLIAETVKKFTK [STIP9-1] | 50 | > (the use of > indicates an MIC >200 μg/mL; the maximum concentration tested) | 200 | 100 | – | – | – | –
TVKSFVNLILKTVKKYAK [STIP8-2] | 6.25 | > (the use of > indicates an MIC >200 μg/mL; the maximum concentration tested) | 100 | 100 | – | – | – | –
TVGGLVAWILDTVKKFA [K7A, TVGGLVAWILDTVKKFA] | – | – | – | – | 200 | > (> = >200 μg/mL (maximum concentration tested)) | > (the use of > indicates an MIC > 200 μg/mL; the maximum concentration tested) | > (the use of > indicates an MIC > 200 μg/mL; the maximum concentration tested)
TVGGAVKWILDTVKKFA [L5A, TVGGAVKWILDTVKKFA] | – | – | – | – | 100 | > (> = >200 μg/mL (maximum concentration tested)) | > (the use of > indicates an MIC > 200 μg/mL; the maximum concentration tested) | > (the use of > indicates an MIC > 200 μg/mL; the maximum concentration tested)
TVGGLVKWILDTVKKAA [F16A, TVGGLVKWILDTVKKAA] | – | – | – | – | 200 | > (> = >200 μg/mL (maximum concentration tested)) | > (the use of > indicates an MIC > 200 μg/mL; the maximum concentration tested) | > (the use of > indicates an MIC > 200 μg/mL; the maximum concentration tested)
TVGGLVKWILDTAKKFA [V13A, TVGGLVKWILDTAKKFA] | – | – | – | – | 50 | 200 µg/mL | – | 200 µg/mL
TVGGLVKWALDTVKKFA [I9A, TVGGLVKWALDTVKKFA] | – | – | – | – | 200 | > (> = >200 μg/mL (maximum concentration tested)) | > (the use of > indicates an MIC > 200 μg/mL; the maximum concentration tested) | > (the use of > indicates an MIC > 200 μg/mL; the maximum concentration tested)
TAGGLVKWILDTVKKFA [V2A, TAGGLVKWILDTVKKFA] | – | – | – | – | 50 | > (> = >200 μg/mL (maximum concentration tested)) | > (the use of > indicates an MIC > 200 μg/mL; the maximum concentration tested) | 100 µg/mL
